US9394300B2, “Quinolone derivatives” (Cadila Healthcare Limited, priority 2012, dated 2016)

Tests used:
C57 Mice [1] = assay: Estimating hemoglobin levels in mice; format: in vivo; conditions: oral once daily for 7 consecutive days at 20 mg/kg, whole blood on 8th day
Procedure: (2) Protocol for Estimating Hemoglobin Levels in Mice
C57 mice were administered compounds of the present invention at 10 ml/kg by oral route daily once in the morning for 7 consecutive days at 20 mg/kg. On 8th day animals were bled by retro-orbital puncture under light ether anesthesia in microfuge tubes containing 2% EDTA (10 μl/100 μl of blood) for whole blood. Hemoglobin, Reticulocyte count and RBC count were measured using standard procedures.

C57 Mice [2] = assay: Estimating circulating EPO release in mice (plasma EPO by mouse EPO ELISA); format: in vivo; conditions: plasma six hours after administration, EPO in control = 62 ng/mL
Procedure: (1) Protocol for Estimating Circulating EPO Release in Mice
C57 Mice were administered various doses (10 mg/kg, 30 mg/kg, 50 mg/kg, 100 mg/kg) of compounds of the present invention by oral gavage at 10 ml/kg. Six hours after compound administration, mice were bled by retro-orbital puncture, under light ether anesthesia in microfuge tubes containing 2% EDTA (10 μl/100 μl of blood). Plasma was separated and analyzed for EPO content by mouse EPO ELISA.

Structure (SMILES)	Hemoglobin (g/dL) 20 mg/kg compound (C57 Mice [1])	EPO (ng/mL) oral gavage 10 mg/kg (C57 Mice [2])	EPO (ng/mL) oral gavage 30 mg/kg (C57 Mice [2])	EPO (ng/mL) oral gavage 50 mg/kg (C57 Mice [2])
O=C(O)CNC(=O)c1c(O)c2ccccc2n(OCC2CC2)c1=O [Example 2, 2-(1-(cyclopropylmethoxy)-4-hydroxy-2-oxo-1,2-dihydroquinoline-3-carboxamido)acetic acid]	16.3 g/dL	396 ng/mL	4822 ng/mL	
C=CCOn1c(=O)c(C(=O)NCC(=O)O)c(O)c2ccccc21 [Example 15, 2-(1-(allyloxy)-4-hydroxy-2-oxo-1,2-dihydroquinoline-3-carboxamido)acetic acid]	13.2 g/dL	315 ng/mL		4269 ng/mL
CCCOn1c(=O)c(C(=O)NCC(=O)O)c(O)c2ccccc21 [Example 21, 2-(4-hydroxy-2-oxo-1-propoxy-1,2-dihydroquinoline-3-carboxamido) acetic acid]	15.8 g/dL	190 ng/mL	6234 ng/mL	
COc1ccc(COn2c(=O)c(C(=O)NCC(=O)O)c(O)c3ccccc32)cc1 [Example 67, 2-(4-hydroxy-1-((4-methoxybenzyl)oxy)-2-oxo-1,2-dihydroquinoline-3-carboxamido)acetic acid]				477 ng/mL
